Laboratory results published in ChEMBL document CHEMBL4414645, “Development of Robust 17(R),18(S)-Epoxyeicosatetraenoic Acid (17,18-EEQ) Analogues as Potential Clinical Antiarrhythmic Agents” (J Med Chem, 2019).
Activity calls are given as the source filed them. No cut-off for these calls is given here.

Assays:
Cytochrome P450 2J2 = molecular target: T1, Cytochrome P450 2J2 (Homo sapiens, UniProt P51589); test: Inhibition of recombinant human CYP2J2 expressed in baculovirus infected insect cells co-expressing NADPH-CYP reductase and cytochrome b5 assessed as reduction in CYP2J2-mediated EPA epoxidation by measuring sum of EEQ and DiHETEs level at 1 to 50 uM using EPA as substrate preincubated for 5 mins followed by NADPH addition and measured after 15 mins by LCMS/MS analysis; type: ADME; details: recombinant enzyme, 0.25 h
T1 sequence (P51589 whole entry): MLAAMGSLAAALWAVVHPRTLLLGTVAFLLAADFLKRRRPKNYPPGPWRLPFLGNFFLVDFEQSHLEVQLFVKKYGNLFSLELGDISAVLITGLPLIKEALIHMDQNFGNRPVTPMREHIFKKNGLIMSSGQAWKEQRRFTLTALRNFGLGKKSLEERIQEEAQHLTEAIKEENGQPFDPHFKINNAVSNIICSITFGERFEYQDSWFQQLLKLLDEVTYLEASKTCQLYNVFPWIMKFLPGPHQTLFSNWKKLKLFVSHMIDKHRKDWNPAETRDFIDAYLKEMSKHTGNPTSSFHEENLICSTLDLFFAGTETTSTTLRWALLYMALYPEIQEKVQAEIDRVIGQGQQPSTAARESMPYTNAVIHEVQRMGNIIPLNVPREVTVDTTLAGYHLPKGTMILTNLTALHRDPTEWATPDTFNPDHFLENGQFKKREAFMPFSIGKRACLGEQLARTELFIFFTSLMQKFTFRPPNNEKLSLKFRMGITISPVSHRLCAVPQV

Cytochrome P450 [1] = test: Drug metabolism in human liver microsomes assessed as CYP450-mediated formation of [+O] metabolites at 1 uM after 60 mins in absence of NADPH by LC-MS analysis; type: ADME; details: 1 h
[2] = molecular target: T2, Epoxide hydrolase 1/Bifunctional epoxide hydrolase 2 (Homo sapiens, UniProt P07099+P34913); test: Drug metabolism in human liver microsomes assessed as microsomal/soluble epoxide hydrolase mediated formation of [+O + H2O] metabolites at 1 uM after 60 mins in absence of NADPH by LC-MS analysis; type: ADME; details: 1 h
T2 sequence (P07099 whole entry): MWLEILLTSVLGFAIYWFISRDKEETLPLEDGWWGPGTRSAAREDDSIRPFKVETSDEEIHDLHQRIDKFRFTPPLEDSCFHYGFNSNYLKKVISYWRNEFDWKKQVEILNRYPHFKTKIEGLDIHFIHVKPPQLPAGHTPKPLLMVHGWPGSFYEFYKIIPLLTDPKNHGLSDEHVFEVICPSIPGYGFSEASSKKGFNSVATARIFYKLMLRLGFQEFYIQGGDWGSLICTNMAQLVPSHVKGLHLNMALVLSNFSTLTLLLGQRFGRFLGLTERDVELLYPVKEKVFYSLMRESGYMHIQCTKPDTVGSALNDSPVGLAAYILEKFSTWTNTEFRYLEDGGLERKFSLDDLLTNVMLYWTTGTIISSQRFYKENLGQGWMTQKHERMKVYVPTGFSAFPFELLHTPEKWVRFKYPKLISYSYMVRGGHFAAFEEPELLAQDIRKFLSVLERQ
T2 sequence (P34913 whole entry): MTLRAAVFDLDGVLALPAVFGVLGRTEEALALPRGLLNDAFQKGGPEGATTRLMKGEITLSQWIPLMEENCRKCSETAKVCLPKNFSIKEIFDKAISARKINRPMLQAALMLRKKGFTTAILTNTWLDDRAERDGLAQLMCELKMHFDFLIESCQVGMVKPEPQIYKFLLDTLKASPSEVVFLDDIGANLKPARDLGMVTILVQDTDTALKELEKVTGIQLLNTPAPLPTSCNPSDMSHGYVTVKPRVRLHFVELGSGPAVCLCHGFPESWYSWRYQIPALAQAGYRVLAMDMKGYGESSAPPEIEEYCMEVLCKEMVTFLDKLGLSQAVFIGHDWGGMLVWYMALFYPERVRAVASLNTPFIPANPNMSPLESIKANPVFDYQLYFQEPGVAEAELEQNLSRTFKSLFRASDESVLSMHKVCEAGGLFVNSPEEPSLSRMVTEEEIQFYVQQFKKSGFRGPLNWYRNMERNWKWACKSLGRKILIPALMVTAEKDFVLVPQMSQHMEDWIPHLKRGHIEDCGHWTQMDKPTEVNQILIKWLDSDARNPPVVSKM

Cytochrome P450 [3] = test: Drug metabolism in human liver microsomes assessed as CYP450-mediated formation of [+O] metabolites at 1 uM after 60 mins in presence of NADPH by LC-MS analysis; type: ADME; details: 1 h
[4] = molecular target: T2, Epoxide hydrolase 1/Bifunctional epoxide hydrolase 2; test: Drug metabolism in human liver microsomes assessed as microsomal/soluble epoxide hydrolase mediated formation of [+O + H2O] metabolites at 1 uM after 60 mins in presence of NADPH by LC-MS analysis; type: ADME; details: 1 h
[5] = molecular target: T3, Bifunctional epoxide hydrolase 2 (Homo sapiens) (UniProt P34913); test: Inhibition of N-terminal His-tagged recombinant human soluble epoxide hydrolase (2 to 555 residues) expressed in Sf21 insect cells at 10 uM using as 14,15-EET as substrate after 10 mins by reversed-phase HPLC assay relative to control
T3 sequence (whole entry): T2 sequence (P34913 whole entry)

[6] = molecular target: T3, Bifunctional epoxide hydrolase 2 (Homo sapiens); details: Sf21, at 1 µM
Description: Inhibition of N-terminal His-tagged recombinant human soluble epoxide hydrolase (2 to 555 residues) expressed in Sf21 insect cells at 1 uM using as 14,15-EET as substrate after 10 mins by reversed-phase HPLC assay relative to control

[7] = Negative chronotropic activity in Wistar rat neonatal cardiomyocytes assessed as change in basal beating rate after 7 mins by inverted microscopic method; type: functional
[8] = Aqueous solubility of the compound in pH 7.4 potassium phosphate buffer at 2 mg after 1 to 24 hrs by RP-HPLC method; type: physicochemical
[9] = Negative chronotropic activity in Wistar rat neonatal cardiomyocytes assessed as changes to basal beating rate after 7 mins by inverted microscopic method; type: functional
[10] = Negative chronotropic activity in Wistar rat neonatal cardiomyocytes assessed as decrease in basal beating rate after 7 mins by inverted microscopic method; type: functional, cell-based
Rattus norvegicus [11] = test: Antiarrhythmic activity in Wistar rat model of coronary artery ligation-induced myocardial infarction assessed as reduction in disease severity score at 100 ug, iv administered via bolus pretreated for 10 mins followed by left anterior descending artery occlusion measured for 45 mins; type: functional, organism-based
Rattus norvegicus [12] = test: Antiarrhythmic activity in Wistar rat model of coronary artery ligation-induced myocardial infarction assessed as reduction in total time on development of ventricular tachycardia at 100 ug, iv administered via bolus pretreated for 10 mins followed by coronary artery ligation measured for 45 mins; type: functional, organism-based
[13] = Stability in human plasma assessed as compound remaining at 10 uM measured up to 60 mins by LC-ESI-MS/MS analysis; type: ADME, cell-free; details: read-out: Stability
[14] = Apparent permeability across basolateral to apical side in human Caco2 cells at 10 uM after 15 to 90 mins by LC-ESI-MS/MS analysis; type: ADME, cell-based; details: Caco-2
[15] = Apparent permeability across apical to basolateral side in human Caco2 cells at 10 uM after 15 to 90 mins by LC-ESI-MS/MS analysis; type: ADME, cell-based; details: Caco-2
[16] = Intrinsic clearance in human hepatocytes assessed per million cells at 1 uM measured up to 180 mins by LC-ESI-MS/MS analysis; type: ADME, cell-based, Hepatocyte; details: read-out: CLH
[17] = Half life in human hepatocytes at 1 uM measured up to 180 mins by LC-ESI-MS/MS analysis; type: ADME, cell-based, Hepatocyte

Row | SMILES | inhibition [5] [%] | inhibition [6] [%] | Activity [7] [bpm] | further results
1 | CC(C)(C)c1ccc(C(O)CCCN2CCC(C(O)(c3ccccc3)c3ccccc3)CC2)cc1 (configuration not stated) [TERFENADINE] | – | – | – | inhibition (INH) (Cytochrome P450 2J2): Active
2 | CCCCc1oc2ccc(NS(C)(=O)=O)cc2c1C(=O)c1ccc(OCCCN(CCCC)CCCC)cc1 [DRONEDARONE] | – | – | – | inhibition (INH) (Cytochrome P450 2J2): Active
3 | CCCCCCCC/C=C\CCCCCCCC(=O)O [OLEIC ACID] | – | – | – | Drug metabolism (Cytochrome P450 [1]): Metabolite_Notdetected; Drug metabolism [2]: Metabolite_Notdetected; Drug metabolism (Cytochrome P450 [3]): Metabolite_Detected; Drug metabolism [4]: Metabolite_Detected
4 | CCCCc1oc2ccccc2c1C(=O)c1cc(I)c(OCCN(CC)CC)c(I)c1 [AMIODARONE] | – | – | – | inhibition (INH) (Cytochrome P450 2J2): Active
5 | CCNC(=O)NCCCC/C=C\CCCCCCCOCC(=O)O | 10.4 | 3.6 | -38 | –
6 | CNC(=O)C(=O)NCCCC/C=C\CCCCCCCCCc1noc(=O)[nH]1 | -9.2 | -5 | -11 | –
7 | CNC(=O)C(=O)NCCCC/C=C\CCCCCCCCCP(=O)([O-])[O-].[Na+].[Na+] | 37.7 | 6.8 | -21.3 | –
8 | CNC(=O)C(=O)NCCCC/C=C\CCCCCCCCCP(=O)(OCOC(=O)C(C)(C)C)OCOC(=O)C(C)(C)C | 38.4 | 5.1 | -23.5 | –
9 | CCNC(=O)NCCCC/C=C\CCCCCCCCCC(=O)OCCOCCOCCO | 76.6 | 26.5 | -19.8 | solubility [8]: Soluble
10 | CNC(=O)C(=O)NCCCc1ccccc1CCCCCCP(=O)([O-])[O-].[Na+].[Na+] | -2.2 | -1 | -24.5 | –
11 | CNC(=O)C(=O)NCCCC/C=C\CCCCCCCCCC1=NO[S+]([O-])N1 (configuration not stated) | 10 | -0.2 | -24.3 | –
12 | CC[C@@H]1O[C@@H]1C/C=C\C/C=C\C/C=C\C/C=C\CCCC(=O)O | – | – | – | Emax [9]: 28.9 bpm; EC50 [10]: 0.012 µM
13 | CNC(=O)C(=O)NCCCC/C=C\CCCCCCCOCC(=O)OCCOCCOCCO | 1.9 | 1.3 | -25.2 | Activity (Rattus norvegicus [11]): Active; solubility [8]: Soluble; Activity (Rattus norvegicus [12]): Active
14 | CC(C)[N+](C)(CCOC(=O)C1c2ccccc2Oc2ccccc21)C(C)C [PROPANTHELINE BROMIDE] | – | – | – | remaining at 1 h, 10 µM [13]: 2.6%
15 | C[C@]12CC[C@H]3[C@@H](CCC4=CC(=O)CC[C@@]43C)[C@@H]1CC[C@@H]2O [TESTOSTERONE] | – | – | – | Papp B→A at 10 µM [14]: 58.9 ×10⁻⁶ cm/s; Papp A→B at 10 µM [15]: 32.5 ×10⁻⁶ cm/s
16 | CNC(=O)C(=O)NCCCCc1ccccc1CCCCCCCCCP(=O)([O-])[O-].[Na+].[Na+] | 1.8 | 1.3 | -21.8 | –
17 | CNC(=O)C(=O)NCCCC/C=C\CCCCCCCCCOc1cccc2sc(NC(C)=O)nc12 | 61.8 | 17 | -21.1 | –
18 | CNC(=O)C(=O)NCCCC/C=C\CCCCCCCCCP(=O)(OC)OCOC(=O)C(C)(C)C (configuration not stated) | 18.6 | 5.4 | -16.2 | –
19 | CNC(=O)C(=O)NCCCC/C=C\CCCCCCCCCC(=O)NS(=O)(=O)c1ccccc1 | 1.1 | -3.2 | -23.1 | –
20 | CCOc1ccc2ccc(=O)oc2c1 [ETHOXYCOUMARIN] | – | – | – | hepatocyte CLint at 1 µM [16]: 43.2 µL/min/1e6 cells; half-life at 1 µM [17]: 20.5 min
21 | CCNC(=O)NCCCC/C=C\CCCCCCCCCC(=O)NCC(=O)[O-].[Na+] | 19.2 | 0.9 | -21.1 | solubility [8]: Soluble
22 | CNC(=O)C(=O)NCCCC/C=C\CCCCCCCCCS(=O)(=O)[O-].[Na+] | 0 | 5.2 | -20.7 | –
23 | CCNC(=O)NCCCC/C=C\CCCCCCCCCC(=O)O | 23.4 | 4.7 | – | –
24 | CC[C@H]1OC(=O)[C@H](C)[C@@H](O[C@H]2C[C@@](C)(OC)[C@@H](O)[C@H](C)O2)[C@H](C)[C@@H](O[C@@H]2O[C@H](C)C[C@H](N(C)C)[C@H]2O)[C@](C)(O)C[C@@H](C)C(=O)[C@H](C)[C@@H](O)[C@]1(C)O [ERYTHROMYCIN] | – | – | – | Papp B→A at 10 µM [14]: 10.4 ×10⁻⁶ cm/s; Papp A→B at 10 µM [15]: 0.35 ×10⁻⁶ cm/s
25 | CNC(=O)C(=O)NCCCC/C=C\CCCCCCCCCSc1ccccc1O | 1.5 | 0.4 | -7.5 | –
26 | CNC(=O)C(=O)NCCCC/C=C\CCCCCCCCCC(=O)N[C@@H](C)C(=O)[O-].[Na+] | 18.7 | 1.9 | -1.1 | –
27 | CNC(=O)C(=O)NCCCC/C=C\CCCCCCCCCP(=O)(OC)OC | 6.4 | 5 | -18 | –
28 | CNC(=O)C(=O)NCCCC/C=C\CCCCCCCCCC(=O)N(C)CC(=O)[O-].[Na+] | 17.8 | -0.6 | -15.6 | –
